Data set [1] concerns CEM/VLB1000. Nature of the data set: Cytotoxicity potentiation (alamar blue) of vinblastine in multidrug-resistant cells. Format: cell-based. To be noted: midpoint of minimum and maximum cytotoxicity induced by 3-5 μg/mL vinblastine and compound, 48 h. The method, then:
Multidrug-resistant cell lines are easily obtainable for in vitro determination of drug sensitization by compounds of the present invention. In vitro potentiation of antineoplastic cytotoxicity by the imidazole derivatives of the present invention was measured in both CEM/VLB1000 and SK/VLB1000 cell lines. The multidrug resistant cell lines were obtained from Dr. Victor Ling, Ontario Cancer Institute, Toronto, Canada. The CEM/VLB 1000 cell line was maintained as a suspension in minimum essential medium supplemented with 10% fetal bovine serum in a humidied atmosphere of 95% air and 5% CO2 while the SK/VLB 1000 cell line was maintained as adherent cells using the identical medium conditions as the CEM cells. The CEM/VLB 1000 cells were seeded at a density of 5×10^4 cells/well in a 96 well microtiter plate while the SK/VLB 1000 cell line was seeded at a density of 2,500 cells/well after trypsinization. Vinblastine (5 μg/mL, for the CEM cells) or Taxol (3 μg/mL, for the SK cells) and compound (0.01 to 50 μM) were added directly to the wells. After an incubation of 48 hours in presence of drug, alamar blue (B. Page et al., Int. J. Oncol. 3: 473-476, 1993) was added (10 μL to the 200 μL cell suspension) for a period of 24 hours after which the fluorescence (excitation=530 nm, emission=590 nm) was read for each well using a "CytoFluor" microtiter fluorometer plate reader. This assay measures the effective concentration of compound necessary to enhance the cytotoxicity (EC50) of vinblastine in the MDR cell line.
^1 Values presented are the midpoint (EC50) of the minimum and
maximum cytotoxicity induced by 3-5 μg/mL vinblastine and the specific
compound of the present invention.
A general note: The colour change of resazurin is a common sign of viable cells or microbes.

In data set [2] the test system is CEM/VLB1000. Nature of the data set: [3H]-vinblastine (VLB) accumulation assay. In kind it is cell-based. To be noted: midpoint of minimum and maximum increase in accumulation of 3H-vinblastine (275 nM), 3 hours at 37° C. The method, then:
^3 H-vinblastine accumulation was also measured in the CEM/VLB1000 cell line. Corning Easy-Wash 96 well plates were pretreated with PBS and 1% BSA for 60 minutes and then removed. CEM/VLB1000 cells were seeded at 2×10^5, 40 μL volume. Plates were incubated at 37° C. for 30-60 minutes prior to use. The reference reversing agent, verapamil, or the compound of the present invention was added to the well followed by addition of media containing ^3 H-vinblastine (final concentration=275nM). Plates were allowed to incubate for 3 hours at 37° C. Cells were harvested onto pretreated Wallace filtermats A (pretreated with 0.1% polyethyleneimine) using a TomTek harvester-96. After filtering, the filtermats were allowed to dry completely. Meltix B scintillant was then added to the filtermats. The filters were then placed in a 90° C. oven for approximately 3-5 minutes and then removed. Scintillant was allowed to solidify on the filtermats. Filtermats were then placed in sample bags and read on a Wallace BetaPlate scintillation counter. The effects of compounds of the present invention in the cytotoxicity potentiation assays and vinblastine (VLB) accumulation assay are given in the Table below:
^2 Values presented are the midpoint (EC50) of the minimum and
maximum increase in accumulation of ^3 Hvinblastine caused by the
specific compound of the present invention.

Take `COC(=O)/C=C/c1cc(-c2nc(-c3ccc(N(C)C)cc3)c(-c3ccc(N(C)C)cc3)[nH]2)ccc1F` [Example 58, 2-[4-fluoro-3-(trans-methylpropenoate)phenyl]-4,5-bis(4-N,N-dimethylaminophenyl) imidazole]: the EC50 in the data set on CEM/VLB1000 [1] was 134 nM; in the data set with CEM/VLB1000 [2] it was 2000 nM.

On to `CNc1ccc(-c2[nH]c(-c3ccc(F)c(/C=C/C(=O)OC)c3)nc2-c2ccc(N(C)C)cc2)cc1` [Example 59, 2-[4-fluoro-3-(trans-methylpropenoate)phenyl]-4-[(4-N,N-dimethylamino)phenyl]-5-[(4-N-methylamino)phenyl] imidazole], for which the 50% effective concentration (EC50) in the data set with CEM/VLB1000 [1] is 570 nM; in the data set on CEM/VLB1000 [2], 3200 nM.

As for `COC(=O)/C=C/c1ccc(-c2nc(-c3ccc(N(C)C)cc3)c(-c3ccc(N(C)C)cc3)[nH]2)c(F)c1` [Example 60, 2-[2-fluoro-4-(trans-methylpropenoate)phenyl]-4,5-bis(4-N,N-dimethylaminophenyl) imidazole], the 50% effective concentration (EC50) in the data set on CEM/VLB1000 [1] came out at 613 nM; with CEM/VLB1000 [2] it was 3000 nM.

For the compound `COC(=O)/C=C/c1ccc(-c2nc(-c3ccc(N(C)C)cc3)c(-c3ccc(N(C)C)cc3)[nH]2)s1` [Example 61], the EC50 with CEM/VLB1000 [1] stood at 217 nM; in the data set with CEM/VLB1000 [2] it was 1800 nM.

`COC(=O)/C=C/c1csc(-c2nc(-c3ccc(N(C)C)cc3)c(-c3ccc(N(C)C)cc3)[nH]2)c1` [Example 62, 2-[3-(trans-methylpropenoate)thienyl]-4,5-bis[(4-N,N-dimethylamino)phenyl] imidazole]: the half-maximal effective concentration (EC50) turned out to be 320 nM in the data set with CEM/VLB1000 [1] and 3000 nM with CEM/VLB1000 [2].

As to `COCCCc1ccc(-c2nc(-c3ccc(N(C)C)cc3)c(-c3ccc(N(C)C)cc3)[nH]2)cc1` [Example 63, 2-[4-(3-methoxypropyl)phenyl]-4,5-bis[(4-N,N-dimethylamino)phenyl] imidazole], the half-maximal effective concentration (EC50) in the data set with CEM/VLB1000 [1] worked out at 205 nM; in the data set with CEM/VLB1000 [2], 1100 nM.

For `COc1ccc(/C=C/C(=O)OC(C)C)cc1-c1nc(-c2ccc(N(C)C)cc2)c(-c2ccc(N(C)C)cc2)[nH]1` [Example 64, 2-[2-methoxy-5-(trans-i-propylpropenoate)phenyl]-4,5-bis(4-N,N-dimethylaminophenyl) imidazole], the results for the EC50 in the data set on CEM/VLB1000 [1] and in the data set with CEM/VLB1000 [2] were 390 nM and 6000 nM, respectively.

On to `CC(C)OC(=O)/C=C/c1ccc(-c2nc(-c3ccc(N(C)C)cc3)c(-c3ccc(N(C)C)cc3)[nH]2)s1` [Example 65, 2-[3-(trans-i-propylpropenoate)thienyl]-4,5-bis[(4-N,N-dimethylamino)phenyl] imidazole], for which the results for the EC50 in the data set with CEM/VLB1000 [1] and in the data set on CEM/VLB1000 [2] were 211 nM and 4000 nM, respectively.

Consider `CN(C)c1ccc(-c2nc(-c3ccc(/C=C/C(=O)OCc4ccccc4)cc3)[nH]c2-c2ccc(N(C)C)cc2)cc1` [Example 67, 2-[4-(trans-benzylpropenoate)phenyl]-4,5-bis[(4-N,N-dimethylamino)phenyl] imidazole], for which the EC50 in the data set on CEM/VLB1000 [1] turned out to be 330 nM; with CEM/VLB1000 [2], 10500 nM.

On to `CN(C)c1ccc(-c2nc(-c3ccc(/C=C/C(=O)OCCc4ccccc4)cc3)[nH]c2-c2ccc(N(C)C)cc2)cc1` [Example 68, 2-[4-(trans-phenethylpropenoate)phenyl]-4,5-bis[(4-N,N-dimethylamino)phenyl] imidazole], for which the values for the EC50 with CEM/VLB1000 [1] and in the data set on CEM/VLB1000 [2] were 1200 nM and over 30000 nM, respectively.

One may read the EC50 as the concentration needed to bring the measured effect to its halfway point.

Source of the values: patent US5756527A, “Imidazole derivatives useful as modulators of multi drug resistances” (Ontogen Corporation, priority 1997, dated 1998).
